Laboratory results reported in US20150119267A1, “INHIBITION OF COLONY STIMULATING FACTOR-1 RECEPTOR SIGNALING FOR THE TREATMENT OF BRAIN CANCER” (SLOAN-KETTERING INSTITUTE FOR CANCER RESEARCH, priority 2012, published 2015).
Entries after “also recorded” stand apart in the source; their conditions may differ.

Tests used:
[1] = system: CSF1-dependent cell proliferation; experiment: CSF1-dependent cell proliferation; assay type: cell-based; conditions: read-out: inhibits CSF1-dependent cell proliferation
>200 kinases = experiment: biochemical kinase panel; conditions: read-out: biochemical IC50 values for >200 kinases tested; except cKIT and PDGFRβ; data not shown
[2] = system: primary bone marrow-derived macrophages (BMDMs); experiment: MTT assay, primary BMDMs; assay type: cell-based, mouse; conditions: wild-type C57BL/6 BMDMs in culture, 67 nM
Protocol: (§1) Cell growth rate was determined using the MTT cell proliferation kit (Roche). […] Media was changed every 48 hours. BMDM and CRL-2467 cells were supplemented with 10 ng/ml and 30 ng/ml recombinant mouse CSF-1 respectively unless otherwise indicated. Ten μl of MTT labeling reagent was added to each well and then incubated for 4 hours at 37° C., followed by the addition of 100 μl MTT solubilization reagent overnight. The mixture was gently resuspended and absorbance was measured at 595 nm and 750 nm on a SPECTRAMAX 340 pc plate reader (Molecular Devices).

[3] = system: CRL-2467 microglia cell line; experiment: MTT assay, CRL-2467 microglia; assay type: cell-based
Protocol: U-87 MG (HTB-14) glioma and CRL-2467 microglia cell lines were purchased from ATCC. The U-87 MG cell line was cultured in DMEM+10% FBS. The CRL-2467 cell line was cultured in DMEM+10% FBS with 30 ng/ml recombinant mouse CSF-1.
as §1

[4] = system: secondary neurospheres from PDG tumors; experiment: Secondary neurosphere formation assay; assay type: cell-based, mouse; conditions: concentrations up to 6700 nM
Protocol: For neurosphere formation the cell pellet was resuspended in neurosphere media consisting of mouse NSC Basal Media, NSC proliferation supplements, 10 ng/ml EGF, 20 ng/ml basic-FGF and 1 mg/ml Heparin (Stem Cell Technologies). Fresh media was added every 72 hours for 2 weeks. Primary neurospheres were collected, mechanically disaggregated to a single cell suspension and propagated by serial passaging. To generate glioma cell lines, secondary neurospheres were dissociated to single cell suspensions and cultivated in DMEM+10% FBS as a monolayer (10). Multiple glioma cell lines were derived from independent mice, denoted GBM1-4 herein. Glioma cells were infected with a pBabe-H2B-mCherry construct as described previously (11).
Primary neurospheres were disaggregated to a single cell suspension and 5×10^3 cells were plated in a 6 well plate in neurosphere media in the presence of the CSF-1R inhibitor or DMSO as vehicle. Media was changed every 48 hours. Secondary neurosphere formation was assayed by counting the number of neurospheres obtained after 2 weeks.

[5] = BLZ945 pharmacokinetics, blood-brain barrier; assay type: in vivo, mouse; conditions: single dose 200 mg/kg oral gavage
Protocol: The CSF-1R inhibitor was obtained from the Novartis Institutes for Biomedical Research (Emeryville, Calif.). The drug was formulated in 20% captisol at a concentration of 12.5 mg/ml. The vehicle control, 20% captisol, was processed in the same manner. […] To determine if the drug was able to cross the blood-brain barrier, tumor-bearing mice were treated with a single dose of the CSF-1R inhibitor and sacrificed at different time points post-treatment. Plasma, and the left (contralateral) and right (tumor-bearing) hemispheres of the brain were snap frozen in liquid nitrogen for subsequent analysis of CSF-1R inhibitor concentrations in the tissue. For long-term survival studies, dosing begun at 17 days/2.5 weeks post-injection of RCAS-PDGF-B-HA. For the fixed time-point studies, mice underwent MRI scans at 4-5 weeks post-injection of RCAS-PDGF-B-HA, as previously described (5). To determine tumor volume, regions of interest (ROI) were circumscribed on T2 weighted images and their corresponding area in mm^2 was multiplied by the slice height of 0.7 mm. The total tumor volume is the sum of the ROI volume in each slice, and the volume for the first and last slice in which the tumor appears is halved to approximate the volume of a trapezoid. When tumor volume was in the range of 4.5-40 mm^3, animals were randomly assigned to treatment groups. […]

[6] = system: PDGF-driven gliomas (PDG); experiment: Long-term survival trial in PDG mice; assay type: in vivo
CD11b+Gr-1− TAMs = experiment: Gene expression profiling of TAMs (microarray); assay type: in vivo, mouse
normal microglia = experiment: Microglia in normal non-tumor bearing mice, flow cytometry; assay type: in vivo, mouse; conditions: 200 mg/kg once per day for 7 days
Protocol: Data are presented as mean±SEM. […] Circles represent individual mice (n=5-6 per group). P values were obtained using unpaired two-tailed Student's t-test; *P<0.05.
As many immune cell epitopes are papain-sensitive, for investigation of immune cell infiltration by flow cytometric analysis, tumors were digested to a single cell suspension by incubation for 10 minutes at 37° C. with 5 mL of 1.5 mg/ml collagenase III (Worthington) and 0.06 mg/mL DNase I in 1× Hanks Balanced Salt Solution (HBSS) with calcium and magnesium. The cell suspension was then washed with PBS and passed through a 40 μm mesh to remove undigested tissue. To remove myelin debris, the cell pellet was resuspended at room temperature in 15 ml of 25% Percoll prepared from stock isotonic Percoll (90% Percoll [Sigma], 10% 10× HBSS), and then spun for 15 minutes at 1500 rpm (Sorvall Legend RT) with accelerator and brake set to 1. The cell pellet was then washed with lx HBSS prior to being resuspended in FACS buffer.
After counting, cells were incubated with 1 μl of Fc Block for every million cells for at least 15 minutes at 4° C. Cells were then stained with the appropriate antibodies for 10 minutes at 4° C., washed with FACS buffer, and resuspended in FACS buffer containing DAPI (5 mg/ml diluted 1:5000) for live/dead cell exclusion.

CNC(=O)c1cc(Oc2ccc3nc(N[C@@H]4CCCC[C@H]4O)sc3c2)ccn1 [BLZ945]
IC50 [1]: 67 nM | IC50 (>200 kinases): > 10000 nM | macrophage (BMDM) survival / viability [2]: significantly decreases the viability; also recorded: blocks macrophage survival | survival / viability of microglia cell line [3]: reduced viability; also recorded: blocks survival | tumor neurosphere formation (number or size of secondary neurospheres) [4]: no effect; also recorded: does not affect the number or size | blood-brain barrier crossing [5]: able to effectively cross the blood-brain barrier | concentration in contralateral non-tumor bearing hemisphere versus tumor ([5]; all time points tested): comparable to the level achieved in the tumor | tolerability ([6]; 200 mg/kg once daily, up to 26 weeks): well-tolerated | asymptomatic mice with no detectable lesions at end stage ([6]; 26-week endpoint): 55.6% | cohort still alive at trial endpoint (symptom-free survival) ([6]; 26 weeks post-injection, 200 mg/kg once daily from 2.5 weeks): 64.3% | tumor grade ([6]; versus vehicle, long-term survival trial): significantly less malignant tumors | targets of Egr2 (GSEA) (CD11b+Gr-1− TAMs; 7 days treatment): downregulated | upregulated differentially expressed genes (CD11b+Gr-1− TAMs; BLZ945 versus vehicle, 7 days treatment): 52 genes | classically activated/M1 macrophage markers (CD11b+Gr-1− TAMs; with the exception of IL-1 beta): not differentially expressed | normal microglia in non-tumor bearing mice (normal microglia): depletes normal microglia
